Patent US20060264422A1, “Use of taurolidine as enhancer of the complement system” (priority 2005, published 2006)

Legend:
C3a = test: ELISA of complement anaphylatoxin C3a in serum; type: biochemical, human
Protocol: (§1) Complement anaphylatoxins C5a and C3a and the lytic complex (MAC, C5b-9) in the serum of healthy volunteers were determined quantitatively using commercially available ELISA (“enzyme-linked immunosorbent assay”) test systems. As described above, initially serum samples having various concentrations of taurolidine (0.1-5%, in parallel with samples containing Ringer solution in corresponding dilution ratios=controls) were incubated for 30 minutes at 37° C. The samples were then diluted according to the protocol of the manufacturer and pipetted into the wells of the microtiter plate. The subsequent incubation/washing steps were carried out according to the protocol of the manufacturer. […] The extinction was measured using an ELISA plate reader and the values were then converted to concentrations using the standard samples which had also been measured.

C5a = test: ELISA of complement anaphylatoxin C5a in serum; type: biochemical, human
Protocol: as §1

[1] = system: membrane attack complex (MAC, C5b-9); test: ELISA of lytic complex (MAC, C5b-9) in serum; type: biochemical, human; conditions: all dosis ranges studied (0.1-5% taurolidine); FIG. 7
Protocol: as §1

complement system = test: CH50 assay (hemolysis of sensitized sheep erythrocytes by human serum); type: biochemical
Protocol: Using the CH50 assay, it is possible to assess functionally the total activity of the complement system, especially the classic activation pathway. […] In accordance with the protocol, a dilution series (1:20-1:480) was prepared for each condition and washed sheep erythrocytes which had been preincubated with hemolysin reagent were then added. During subsequent incubation at 37° C. for exactly 1 hour the erythrocytes were lysed depending on the activity of the complement system. In each experiment, a negative control (no hemolysis), a sample with 50% hemolysis (CH50, by dilution with dist. water) and a sample with 100% hemolysis (CH100, by dilution with dist. water) were analyzed in each case. After a final centrifugation, in each case 1 ml of the supernatant of each sample was removed and the absorption at 541 nm was determined photometrically. The determined absorptions were finally plotted against the dilutions. The activity (or the ability to lyse) of the complement system under the respective conditions could be assessed by the shape of the curves (shift to the left=complement activation) and by determining the dilution at which 50% of the erythrocytes have been lysed.

[2] = at 0.5% taurolidine (concentration maximum)

SMILES: O=S1(=O)CCN(CN2CCS(=O)(=O)NC2)CN1 [taurolidine, 4,4′-methylenebis-(1,2,4-thiadiazine-1,1-dioxide)]
- C3a (C3a; at 0.1% taurolidine (minimum)): no or even a tendency of reduced
- formation of C3a (C3a; [2]): enhances the formation
- concentration of complement component C3a compared to untreated serum (C3a; serum with taurolidine 0.1-5%, 30 min, 37° C., FIG. 4): increased compared to untreated serum
- C5a (C5a; at 0.1% taurolidine (minimum)): no or even a tendency of reduced
- formation of C5a (C5a; [2]): enhances the formation
- concentration of complement component C5a compared to untreated serum (C5a; serum with taurolidine 0.1-5%, 30 min, 37° C., FIGS. 5-6): increased compared to untreated serum
- serum concentration of the membrane attack complex (MAC) [1]: elevated significantly
- hemolytic activity (activity of the complement system) (complement system; human serum of healthy volunteers incubated with 0.1-1% taurolidine, 30 min, 37° C., FIGS. 1-3): significantly increases
- complement activation (hemolytic activity), temperature dependence (complement system; incubation at 0-4° C., FIG. 2): not at 0-4 °C
